According to patent US8129527B2, “Analogs of dehydrophenylahistins and their therapeutic use” (Nereus Pharmacuticals, Inc., priority 2006, dated 2012):
Converted amounts (≈) assume the structure as drawn. Read-outs that look alike come from different tables or passages of the source.

Key:
[1] = tested on: Candida glabrata; assay: Antifungal susceptibility testing, broth dilution (MIC/MFC); type: cell-based; details: Nakaseomyces glabratus; C. glabrata; read-out: MIC
Experimental: (§1) Specifically, disclosed compounds were evaluated alongside commercially available microtubulin inhibitors as well as recognized antifungal agents.
(§2) Microorganisms against which these compounds were tested included: Candida albicans, Candida glabrata, Aspergillus fumigatus, Trichophyton rubrum, Trichophyton mentagrophytes, Epidermophyton floccosum. With the exception of Candida glabrata (one isolate), two isolates of each species were tested.
(§3) The minimum lethal concentration (MLC) was determined by plating […] from the MIC concentration and each concentration above the MIC. […] When a MIC was obtained, a minimum fungicidal concentration (MFC) was determined to assess the fungistatic/fungicidal nature of the compound.

[2] = tested on: Candida albicans; assay: as above; type: cell-based
Experimental: as §1, §2, §3

[3] = tested on: MAP-rich microtubules; assay: Microtubule mean length distributions, transmission electron microscopy; type: biochemical, bovine; details: in words
Experimental: Transmission electron microscopy was used to determine the mean length distribution of microtubules in the absence or presence of tested agent. At 75 minutes and prior to sedimentation, 10 μl aliquots from the polymer mass experiments were fixed by dilution into 290 μl PEM100-buffered 0.2% glutaraldehyde. Thirty microliters of fixed sample was settled onto formvar-coated 150 ICG mesh electron microscope grids for 90 seconds. Excess sample was wicked off with Whatman filter paper. Thirty microliters of cytochrome C (1 mg/ml) was applied for 30 seconds to enhance protofilament resolution and facilitate negative staining. Uranyl acetate (1.5%) was applied for 20 seconds and the excess was wicked off Grids were viewed in a Jeol electron microscope-1200 EX11 at 2000× and 30,000× magnification. The Zeiss MOPIII was used to determine microtubule length distributions and mean lengths for at least 100 microtubules per sample.

[4] = tested on: HuVEC; assay: Action on microtubule function, α-tubulin staining; details: 2 μM, thirty minutes exposure
[5] = tested on: Trichophyton rubrum; assay: Antifungal susceptibility testing, broth dilution (MIC/MFC); type: cell-based; details: Trichophyton rubrum
Experimental: as §1, §2, §3

[6] = tested on: HT-29 cells; assay: Additional cytotoxicity assays, resazurin (Table 3.1); type: cell-based, human; details: Table 3.1
Experimental: 10× concentrated serial dilutions of the two compounds were prepared in appropriate culture medium for final concentrations ranging from 2.0×10^−5 M to 2.0×10^−10 M. Ten μl volumes of the 10× serial dilutions were added to the test wells in triplicate and the plates returned to the incubator for 48 hours.
(§4) Following 48 hours of drug exposure 10 μl of 0.2 mg/ml resazurin (obtained from Sigma-Aldrich Chemical Co.) in Mg^2+, Ca^2+ free PBS was added to each well and the plates were returned to the incubator for 3-4 hours. […] Resazurin dye without cells was used to determine the background, which was subtracted from the data for all experimental wells. The data were analyzed using Prism software (GraphPad Software).
Additional cytotoxicity assays were performed as described above under this example, using Resazurin fluorescence as an indicator of cell viability.

[7] = tested on: Epidermophyton floccosum; assay: Antifungal susceptibility testing, broth dilution (MIC/MFC); type: cell-based
Experimental: (§5) Specifically, disclosed compounds were evaluated alongside commercially available microtubulin inhibitors as well as recognized antifungal agents. […].
as §2
(§6) Drug concentrations were 0.03-16 μg/ml for the investigational compounds, 0.015-8 μg/ml for itraconazole and griseofulvin.
as §3, with “compound. […] The compound is scored as fungistatic if the cells are able to resume growth and fungicidal if no regrowth is possible because the compound had killed the organisms.” for “compound.”

[8] = tested on: Trichophyton mentagrophytes; assay: as above; type: cell-based; details: Trichophyton mentagrophytes
Experimental: as §5, §2, §6
as §3, with “compound. […] The compound is scored as fungistatic if the cells are able to resume growth and fungicidal if no regrowth is possible because the compound had killed the organisms.” for “compound.”

[9] = tested on: MES-SA/Dx5 multidrug resistant; assay: Cell growth inhibition assay, resazurin (Example 11); type: cell-based, human
Experimental: (§7) Human uterine sarcoma (MES-SA; CRL-1976), its multidrug resistant derivative (MES-SA/Dx5; CRL-1977), human acute promyelocytic leukemia cells (HL-60; CCL-240) and its multidrug resistant derivative (HL-60/MX2; CRL-2257) were purchased from ATCC and maintained in appropriate culture media. The cells were cultured in an incubator at 37° C. in 5% CO2 and 95% humidified air.
(§8) For cell growth inhibition assays, MES-SA and MES-SA/Dx5 cells were both seeded at 3×10^3 cells/well in 90 μl complete media into 96 well (Corning; 3904) black-walled, clear-bottom tissue culture plates and the plates were incubated overnight to allow cells to establish and enter log phase growth. HL-60 and HL-60/MX2 cells were both seeded at 5×10^4 cells/well in 90 μl complete media into 96 well plates on the day of compound addition. 20 mM stock solutions of the compounds were prepared in 100% DMSO and stored at −80° C. […] Ten μl volumes of the 10× serial dilutions were added to the test wells in triplicate and the plates returned to the incubator for 48 hours. The final concentration of DMSO was 0.25% in all samples.
as §4, with “exposure,” for “exposure”, “phosphate buffered saline” for “PBS”, “3-6” for “3-4”, “dye in medium” for “dye”, “wells.” for “wells. The data were analyzed using Prism software (GraphPad Software).”
(§9) The multidrug resistant MES-SA/Dx5 tumor cell line was derived from the human uterine sarcoma MES-SA tumor cell line and expresses elevated P-Glycoprotein (P-gp), an ATP dependent efflux pump. The data in Table 19 summarize the growth inhibitory effects of NPI-2421, NPI-2463, NPI-2503, NPI-2504 and NPI-2506 against MES-SA and its multidrug resistant derivative MES-SA/Dx5. Paclitaxel, a known substrate of the P-gp pump was included as a control.

[10] = tested on: HL-60 human acute promyelocytic leukemia cells; assay: as above; type: cell-based; details: mean values of two independent experiments
Experimental: as §7, §8
as §4, with “exposure,” for “exposure”, “phosphate buffered saline” for “PBS”, “3-6” for “3-4”, “dye in medium” for “dye”, “wells.” for “wells. The data were analyzed using Prism software (GraphPad Software).”
(§10) HL-60/MX2 is a multidrug resistant tumor cell line derived from the human promyelocytic leukemia cell line, HL-60 and expresses reduced topoisomerase II activity. The data presented in Table 20 summarize the growth inhibitory effects of NPI-2421, NPI-2463, NPI-2503, NPI-2504 and NPI-2506 against HL-60 and its multidrug resistant derivative HL-60/MX2. Mitoxantrone, the topoisomerase II targeting agent was included as a control.

[11] = tested on: B16-F10 melanoma; assay: as above; type: cell-based; details: Mus musculus, 48 hours, mean ± SD where n ≧ 3
Experimental: (§11) The growth inhibitory activity of NPI-2421, NPI-2463, NPI-2503 and NPI-2504 were determined against selected human (colorectal adenocarcinoma, HT-29; breast adenocarcinoma, MDA-MB-231; non-small cell lung carcinoma, NCI-H292 and prostate carcinomas, PC-3 and DU 145) and mouse (melanoma, B16-F10) tumor cell lines.
(§12) HT-29 (HTB-38), MDA-MB-231 (HTB-26), NCI-H292 (CRL-1848), B16-F10 (CRL-6475), PC-3 (CRL-1435) and DU 145 (HTB-81) cells were all purchased from the ATCC. The cell lines were maintained in their respective ATCC recommended culture media and cultured in an incubator at 37° C. in 5% CO2 and 95% humidified air.
(§13) 20 mM stock solutions of compounds were prepared in 100% DMSO and stored at −80° C. 10× concentrated serial dilutions of the compounds were prepared in B16-F10 cell culture medium for final concentrations ranging from 20 μM to […]. Ten μl volumes of the 10× serial dilutions were added to the test wells in triplicate and the plates returned to the incubator for 48 hours. The final concentration of DMSO was 0.25% in all samples.
as §4, with “exposure,” for “exposure”, “phosphate buffered saline” for “PBS”, “3-6” for “3-4”, “dye in medium” for “dye”, “wells.” for “wells. The data were analyzed using Prism software (GraphPad Software).”

[12] = tested on: PC-3 prostate carcinoma; assay: as above; type: cell-based; details: Homo sapiens, 48 hours, mean ± SD where n ≧ 3, ** n = 1
Experimental: as §11, §12, §13
as §4, with “exposure,” for “exposure”, “phosphate buffered saline” for “PBS”, “3-6” for “3-4”, “dye in medium” for “dye”, “wells.” for “wells. The data were analyzed using Prism software (GraphPad Software).”

[13] = tested on: NCI-H292 non-small cell lung carcinoma; assay: as above; type: cell-based; details: Homo sapiens, 48 hours, mean ± SD where n ≧ 3, ** n = 1
Experimental: as §11, §12, §13
as §4, with “exposure,” for “exposure”, “phosphate buffered saline” for “PBS”, “3-6” for “3-4”, “dye in medium” for “dye”, “wells.” for “wells. The data were analyzed using Prism software (GraphPad Software).”

[14] = tested on: HT-29 colorectal adenocarcinoma; assay: as above; type: cell-based; details: Homo sapiens, 48 hours, mean ± SD where n ≧ 3
Experimental: as §11, §12, §13
as §4, with “exposure,” for “exposure”, “phosphate buffered saline” for “PBS”, “3-6” for “3-4”, “dye in medium” for “dye”, “wells.” for “wells. The data were analyzed using Prism software (GraphPad Software).”

[15] = tested on: MDA-MB-231 breast adenocarcinoma; assay: as above; type: cell-based; details: Homo sapiens, 48 hours, mean ± SD where n ≧ 3
Experimental: as §11, §12, §13
as §4, with “exposure,” for “exposure”, “phosphate buffered saline” for “PBS”, “3-6” for “3-4”, “dye in medium” for “dye”, “wells.” for “wells. The data were analyzed using Prism software (GraphPad Software).”

[16] = tested on: HT-29 human colorectal carcinoma cells; assay: Cell growth inhibition assay, resazurin (Table 3.2); type: cell-based; details: Table 3.2, HT-29 cells, read-out: EC50 (M) Mean
Summary of the method: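 HT-29 cells seeded at 5×10^3/well overnight, then exposed in triplicate to compounds at final 20 μM to […] (0.25% DMSO) for 48 h at 37° C. Viability read by resazurin reduction after 3-4 h further incubation, with cell-free dye background subtracted.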

[17] = tested on: HL-60/MX2 multidrug resistant; assay: Cell growth inhibition assay, resazurin (Example 11); type: cell-based, human
Experimental: as §7, §8
as §4, with “exposure,” for “exposure”, “phosphate buffered saline” for “PBS”, “3-6” for “3-4”, “dye in medium” for “dye”, “wells.” for “wells. The data were analyzed using Prism software (GraphPad Software).”
as §10

[18] = tested on: MES-SA human uterine sarcoma; assay: as above; type: cell-based; details: mean ± standard deviation of three independent experiments
Experimental: as §7, §8
as §4, with “exposure,” for “exposure”, “phosphate buffered saline” for “PBS”, “3-6” for “3-4”, “dye in medium” for “dye”, “wells.” for “wells. The data were analyzed using Prism software (GraphPad Software).”
as §9

COc1cc2c(c(OC)c1OC)-c1ccc(OC)c(=O)cc1[C@@H](NC(C)=O)CC2 [Colchicine]
MIC [1]: > 128 mg/L
MIC ([2]; C. albicans 10231): >128 mg/L
MIC ([2]; Candida albicans, C. albicans 90028, read-out: MIC): > 128 mg/L
MT nucleation [3]: did not affect MT nucleation
microtubule depolymerization in HuVEC cells [4]: induced microtubule depolymerization

CC(C)(C)c1[nH]cnc1/C=C1\NC(=O)[C@H](Cc2ccccc2)NC1=O [Compound 2460, (−)-tBu-PLH]
MFC ([5]; T. rubrum isolate #1): 0.125 mg/L (≈ 0.369 µM)
MIC ([5]; T. rubrum isolate #1): < 0.03 mg/L
MFC ([5]; T. rubrum isolate #2): < 0.03 mg/L
MIC ([5]; T. rubrum isolate #2): < 0.03 mg/L
EC50 ([6]; Homo sapiens, HT-29, read-out: EC50 (M) Mean): 2.55e-07 M
% cytotox Mean [6]: 87%
MIC ([7]; E. floccosum isolate #1): > 16 mg/L
MIC ([7]; E. floccosum isolate #2): > 16 mg/L
MFC ([8]; T. mentagrophytes isolate #1): > 16 mg/L
MIC ([8]; T. mentagrophytes isolate #1): 4 mg/L (≈ 11.8 µM)
MIC ([8]; T. mentagrophytes isolate #2): > 16 mg/L

CC(C)(C)c1ocnc1/C=c1\[nH]c(=O)/c(=C/c2cc(F)cc(F)c2F)[nH]c1=O [Compound 2503, tBu-oxadelta-PLH-2,3,5-trifluoro]
EC50 ([9]; Homo sapiens, MES-SA/Dx5, mean ± standard deviation of three independent experiments): 0.013 ± 0.003 µM
cytotoxic activity against both MES-SA and MES-SA/Dx5 ([9]; in words): retained equivalent cytotoxic activity
Fold change ([9]; ratio of EC50 values (MES-SA/Dx5:MES-SA)): 1.0
EC50 [10]: 0.028 µM
EC50 [11]: 0.016 ± 0.002 µM
EC50 [12]: > 2 µM
EC50 [13]: 0.052 µM
EC50 [14]: 0.017 µM
EC50 [15]: 0.021 µM
EC50 [16]: 1.14e-08 M
EC50 ([17]; Homo sapiens, HL60/MX2, HL-60/MX2, mean values of two independent experiments): 0.019 µM
cytotoxic activity against both HL-60 and HL-60/MX2 ([17]; in words): retained cytotoxic activity
Fold change ([17]; ratio of EC50 values (HL-60/MX2:HL-60)): 0.7
EC50 [18]: 0.013 ± 0.003 µM
